In patent US20030072726A1, “Skin lightening agents” (priority 1999, published 2003):
In brackets after ≈: the same amount, converted by molar mass. Read-outs that look alike come from different tables or passages of the source.

Assays:
B16-F1 cells = test: Melanogenesis inhibition (skin lightening) assay in cultured melanocyte cells, secreted melanin OD405; type: cell-based; parameters: Melanogenesis Inhibition Activity: scale not given here; details: for Melanogenesis Inhibition Activity: B16-F1 cells, 96 hours
Description: These were conducted using cultured melanocyte cells exposed to dilutions of the best materials, and compared with kojic acid, a brown skin lightener. The degree of melanin production was inversely proportional to the skin lightener activity. Any cytotoxic effect of the test materials is reflected in a decrease in melanin formation. Each 96 well assay plate included a solvent control and a blank control. […] When the cell cultures were 50 to 80% confluent, the growth medium was removed from the flasks and the cultures rinsed with 10 ml of HBSS. 2 ml of trypsin/EDTA solution was added and the flasks were incubated at 37° C.+/−1° C. for 2 to 5 minutes. When the cells started to dislodge, the flask was rapped sharply against the palm of the hand and approximately 5 ml of assay medium added to neutralise the trypsin. The concentration of cells was determined by counting an aliquot of the stock cell suspension in a haemocytometer. A seeding suspension of 5×10^4 cells/ml was prepared in assay medium. One hundred microlitres of the seeding cell suspension was added to the appropriate wells on each 96 well plate. One hundred microlitres of growth medium was added to the outer wells to maintain humidity. The cells were incubated at 37+/−1° C. in a humidified atmosphere containing 5+/−1% CO2 in air for 24 hours. Based on the information available for the test article, eight decreasing doses were selected and used in the assay. […] In the case of the mixture of protocatechuic acid and arbutin, a 1 to 1 w/w mixture of each was used in each assay with the concentration of each in the highest dose assay being 2.5 mg/ml, and then pro rata in the dilutions assayed in the other 7 assays. […] The test article and positive control was tested by treating six wells per dilution of B16-F1 cells seeded approximately 24 hours earlier. Prior to treatment the medium was removed, and 200 μl of the pre-warmed (37 +/−1° C.) test article dilutions, positive control dilutions and solvent control, were added to the appropriate wells. All test article concentrations were dosed into a single outer well (200 μl) of the corresponding plate to serve as a turbidity control. The remaining wells around the edge of the plate, designated as blanks, received 200 μl of assay medium prior to incubation. Following dosing, the plates were incubated at 37+/−1° C. for 96 hours +/−2 hours. After exposure, 150 μl of each treatment solution (containing any secreted melanin) was removed and transferred to the corresponding wells of a new 96 well plate (melanin production plate). Turbidity controls were also transferred. The absorbance of the melanin present in the melanin production plates was measured at 405 nm (OD405) with an Anthos 2010™microplate reader. The mean of the six OD405 values for each concentration of test article and positive control was calculated. The turbidity control values were subtracted to obtain a correct OD405 value. The mean of the six OD405 values for the corresponding negative or solvent control were calculated by subtracting the blank control value. The corrected OD405 values of the test article or positive control was divided by the corrected OD405 value for the negative or solvent control to obtain a melanin production ratio.

[1] = Solubilities of compounds of the invention; type: physicochemical
[2] = Taste, odour and colour of compounds of the invention; type: physicochemical; details: determined at effective concentrations
[3] = aqueous buffer, water, pH 7.0, read-out: Solubility Water (pH 7.0)
[4] = ethanol, organic solvent or mixture, read-out: Solubility Ethanol
[5] = oil, oil or lipid, read-out: Solubility Oil
[6] = ethylene glycol, organic solvent or mixture, read-out: Solubility Ethylene Clycol

| Taste/Odour [2] | Colour (Solution in Ethanol) [2] | SMILES | Melanogenesis Inhibition Activity (B16-F1 cells; 0.015 mg/ml) | Melanogenesis Inhibition Activity (B16-F1 cells; 0.05 mg/ml) | Melanogenesis Inhibition Activity (B16-F1 cells; 0.15 mg/ml) | Melanogenesis Inhibition Activity (B16-F1 cells; 0.5 mg/ml) | Melanogenesis Inhibition Activity (B16-F1 cells; 1.5 mg/ml) | Melanogenesis Inhibition Activity (B16-F1 cells; 5 mg/ml) | Melanogenesis Inhibition Activity (B16-F1 cells; 15 mg/ml) | solubility [1, 3] [mg/mL] | solubility [1, 4] [mg/mL] | solubility [1, 5] [mg/mL] | solubility [1, 6] [mg/mL] | skin lightening effect when used together with another skin lightening agent (B16-F1 cells; arbutin used together with protocatechuic acid) |
| --- | --- | --- | --- | --- | --- | --- | --- | --- | --- | --- | --- | --- | --- | --- |
|  |  | O=c1cc(CO)occ1O [Kojic acid, reference compound] | 0 | 0 | 0 | 2 | 57 | 170 | 255 |  |  |  |  |  |
| Cloves | Colourless | C=Cc1ccc(O)c(OC)c1 [Vinylguaiacol, 4-Vinyl-2-methoxyphenol] | 3 | 6 | 10 | 1 | 0 | 0 | 0 | > 2 | > 100 | > 50 |  |  |
|  |  | OC[C@H]1O[C@@H](Oc2ccc(O)cc2)[C@H](O)[C@@H](O)[C@@H]1O [Arbutin, reference compound] | 0 | 1 | 4 | 11 | 17 | 14 | 11 |  |  |  |  |  |
| Smoky | Colourless | CCc1ccc(O)c(OC)c1 [Ethylguaiacol, 4-Ethyl-2-methoxyphenol] | 2 | 8 | 14 | 17 | 0 | 0 | 0 |  |  |  | 250 (≈ 1640 mM) |  |

| SMILES | Taste/Odour [2] | Colour (Solution in Ethanol) [2] | Melanogenesis Inhibition Activity (B16-F1 cells; 0.015 mg/ml) | Melanogenesis Inhibition Activity (B16-F1 cells; 0.05 mg/ml) | Melanogenesis Inhibition Activity (B16-F1 cells; 0.15 mg/ml) | Melanogenesis Inhibition Activity (B16-F1 cells; 0.5 mg/ml) | Melanogenesis Inhibition Activity (B16-F1 cells; 1.5 mg/ml) | Melanogenesis Inhibition Activity (B16-F1 cells; 5 mg/ml) | Melanogenesis Inhibition Activity (B16-F1 cells; 15 mg/ml) | solubility [1, 3] [mg/mL] | solubility [1, 4] [mg/mL] | solubility [1, 5] [mg/mL] | solubility [1, 6] [mg/mL] | skin lightening effect when used together with another skin lightening agent (B16-F1 cells; arbutin used together with protocatechuic acid) |
| --- | --- | --- | --- | --- | --- | --- | --- | --- | --- | --- | --- | --- | --- | --- |
| O=C(O)c1ccc(O)c(O)c1 [Protocatechuic acid, 3,4-Dihydroxybenzoic acid] | None | Colourless | 0.5 | 2 | 1 | 3 | 7 | 0 | 0 | > 300 | > 500 | < 0.2 | 250 (≈ 1620 mM) | synergistic skin lightening effect |
